Source: ChEMBL document CHEMBL1142021, “Aglycon specificity profiling of alpha-glucosidases using synthetic probes” (Bioorg Med Chem Lett, 2005)
pIC50, pKi: −log10 of the molar value.

Experiments:
[1] = target: T1, Alpha-glucosidase (Apis mellifera) (UniProt Q17058); test: Inhibition of family 13 alpha-glucosidase isoform III from honey bee at 1 umol/mL
T1 sequence (whole entry): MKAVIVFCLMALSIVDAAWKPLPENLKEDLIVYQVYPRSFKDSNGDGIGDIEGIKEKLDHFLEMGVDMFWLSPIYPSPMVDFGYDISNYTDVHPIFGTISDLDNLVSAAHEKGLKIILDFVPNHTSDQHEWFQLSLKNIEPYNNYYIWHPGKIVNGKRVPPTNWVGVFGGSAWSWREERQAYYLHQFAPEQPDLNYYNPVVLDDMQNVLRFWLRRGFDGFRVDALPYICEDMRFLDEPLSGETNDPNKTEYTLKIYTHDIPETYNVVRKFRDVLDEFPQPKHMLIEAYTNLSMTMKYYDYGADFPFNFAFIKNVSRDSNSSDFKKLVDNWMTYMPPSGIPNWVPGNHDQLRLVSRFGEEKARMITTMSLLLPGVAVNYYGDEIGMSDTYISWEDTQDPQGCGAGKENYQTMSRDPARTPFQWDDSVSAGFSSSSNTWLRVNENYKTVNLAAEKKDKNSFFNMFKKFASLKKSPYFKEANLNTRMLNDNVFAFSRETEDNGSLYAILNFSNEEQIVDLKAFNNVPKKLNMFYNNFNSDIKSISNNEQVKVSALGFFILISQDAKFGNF

[2] = Competitive Inhibition constant for Saccharomyces cerevisiae glucosidase
[3] = target: T1, Alpha-glucosidase (Apis mellifera); test: Inhibition of family 13 alpha-glucosidase isoform II from honey bee; details: concentration not given here
[4] = target: T2, Mannosyl-oligosaccharide glucosidase (Homo sapiens) (UniProt Q13724); test: Inhibition of Glucosidase 1(of Endoplasmic reticulum processing alpha-glucosidase) at 2 umol/mL
T2 sequence (whole entry): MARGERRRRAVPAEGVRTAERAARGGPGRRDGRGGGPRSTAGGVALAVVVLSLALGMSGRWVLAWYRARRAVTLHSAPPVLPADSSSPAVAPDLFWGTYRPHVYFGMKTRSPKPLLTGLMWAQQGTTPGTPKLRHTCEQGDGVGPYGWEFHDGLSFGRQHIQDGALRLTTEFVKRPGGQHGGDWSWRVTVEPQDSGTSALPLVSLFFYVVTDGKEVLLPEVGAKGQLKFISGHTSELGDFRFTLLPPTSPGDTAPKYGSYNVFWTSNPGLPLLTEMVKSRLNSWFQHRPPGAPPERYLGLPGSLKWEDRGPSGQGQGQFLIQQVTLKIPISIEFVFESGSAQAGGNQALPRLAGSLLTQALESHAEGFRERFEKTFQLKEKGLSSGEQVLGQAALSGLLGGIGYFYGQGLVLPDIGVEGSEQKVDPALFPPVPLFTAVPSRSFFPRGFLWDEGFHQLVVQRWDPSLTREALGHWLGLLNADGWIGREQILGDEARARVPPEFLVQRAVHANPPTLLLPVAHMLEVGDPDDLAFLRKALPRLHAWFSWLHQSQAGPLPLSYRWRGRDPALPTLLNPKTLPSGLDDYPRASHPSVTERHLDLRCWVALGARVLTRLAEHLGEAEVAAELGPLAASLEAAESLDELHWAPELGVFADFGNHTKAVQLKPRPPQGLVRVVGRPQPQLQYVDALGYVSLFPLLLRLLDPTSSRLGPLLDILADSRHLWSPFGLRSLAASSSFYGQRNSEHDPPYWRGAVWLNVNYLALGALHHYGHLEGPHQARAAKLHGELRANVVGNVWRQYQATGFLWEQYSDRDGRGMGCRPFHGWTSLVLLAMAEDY

[5] = target: T3, Cytosolic beta-glucosidase (Homo sapiens) (UniProt Q9H227); test: Inhibition of beta-Glucosidase at 1 umol/mL
T3 sequence (whole entry): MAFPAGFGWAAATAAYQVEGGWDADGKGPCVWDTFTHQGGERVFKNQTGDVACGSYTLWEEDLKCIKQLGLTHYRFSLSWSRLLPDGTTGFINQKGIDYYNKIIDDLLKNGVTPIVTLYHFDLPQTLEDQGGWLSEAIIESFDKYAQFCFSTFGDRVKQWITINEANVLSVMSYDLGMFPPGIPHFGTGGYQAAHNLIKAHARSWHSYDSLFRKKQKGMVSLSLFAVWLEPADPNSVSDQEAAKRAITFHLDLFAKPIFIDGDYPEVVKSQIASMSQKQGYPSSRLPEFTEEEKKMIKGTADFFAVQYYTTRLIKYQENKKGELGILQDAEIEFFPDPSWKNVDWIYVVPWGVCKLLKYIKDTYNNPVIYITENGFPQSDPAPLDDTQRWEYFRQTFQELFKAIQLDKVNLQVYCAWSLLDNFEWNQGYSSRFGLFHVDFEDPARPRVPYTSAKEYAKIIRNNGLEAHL

[6] = target: T4, Alpha-glucosidase (Geobacillus stearothermophilus) (UniProt P94451); test: Inhibition of Bacillus stearothermophilus glucosidase (of family 13 alpha-glucosidase) at 1 umol/mL
T4 sequence (whole entry): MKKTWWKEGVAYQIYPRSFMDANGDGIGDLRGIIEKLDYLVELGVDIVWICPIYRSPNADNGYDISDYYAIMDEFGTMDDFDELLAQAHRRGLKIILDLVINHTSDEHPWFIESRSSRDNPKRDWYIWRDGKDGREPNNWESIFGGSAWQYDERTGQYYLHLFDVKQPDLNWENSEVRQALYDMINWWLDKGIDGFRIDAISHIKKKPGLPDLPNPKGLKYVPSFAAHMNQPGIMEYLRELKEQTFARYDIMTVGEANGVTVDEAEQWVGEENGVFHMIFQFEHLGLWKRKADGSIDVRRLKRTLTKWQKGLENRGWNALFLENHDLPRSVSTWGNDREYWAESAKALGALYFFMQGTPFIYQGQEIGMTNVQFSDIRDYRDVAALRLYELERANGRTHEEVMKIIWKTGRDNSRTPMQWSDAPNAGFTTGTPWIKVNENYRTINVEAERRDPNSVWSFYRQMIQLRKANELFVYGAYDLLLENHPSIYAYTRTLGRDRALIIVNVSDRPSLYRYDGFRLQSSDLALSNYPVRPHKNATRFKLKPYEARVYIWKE

[7] = target: Alpha-glucosidase (Beta vulgaris) (UniProt O04931); test: Inhibition of Sugar beet glucosidase (of family 31 alpha-glucosidase) at 1 umol/mL
Sequence of Alpha-glucosidase (Beta vulgaris) (O04931 whole entry): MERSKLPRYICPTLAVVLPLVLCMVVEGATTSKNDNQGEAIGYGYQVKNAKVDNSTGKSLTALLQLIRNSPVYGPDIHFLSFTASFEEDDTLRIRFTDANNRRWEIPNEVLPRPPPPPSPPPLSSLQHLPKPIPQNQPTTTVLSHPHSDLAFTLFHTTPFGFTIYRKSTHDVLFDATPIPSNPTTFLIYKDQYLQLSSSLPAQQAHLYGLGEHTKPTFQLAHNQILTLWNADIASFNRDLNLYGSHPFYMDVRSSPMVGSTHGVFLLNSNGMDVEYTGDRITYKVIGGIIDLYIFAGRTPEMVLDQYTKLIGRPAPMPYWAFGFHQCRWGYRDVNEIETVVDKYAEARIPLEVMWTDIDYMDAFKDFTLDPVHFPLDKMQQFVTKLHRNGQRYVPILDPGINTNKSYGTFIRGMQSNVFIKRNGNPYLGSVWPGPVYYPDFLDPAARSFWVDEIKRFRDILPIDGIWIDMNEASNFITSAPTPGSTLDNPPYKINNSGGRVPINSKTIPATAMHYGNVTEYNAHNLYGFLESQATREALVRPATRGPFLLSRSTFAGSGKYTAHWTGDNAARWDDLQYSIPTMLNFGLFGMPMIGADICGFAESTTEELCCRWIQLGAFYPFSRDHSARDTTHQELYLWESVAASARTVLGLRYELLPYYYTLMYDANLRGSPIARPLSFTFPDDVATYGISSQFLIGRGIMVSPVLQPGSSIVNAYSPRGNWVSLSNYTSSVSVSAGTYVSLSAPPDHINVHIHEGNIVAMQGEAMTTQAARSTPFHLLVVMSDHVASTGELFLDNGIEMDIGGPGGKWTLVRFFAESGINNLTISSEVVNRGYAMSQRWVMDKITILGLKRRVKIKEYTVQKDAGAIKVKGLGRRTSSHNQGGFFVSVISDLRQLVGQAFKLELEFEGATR

[8] = Inhibitory concentration for Saccharomyces cerevisiae glucosidase (of family 13 alpha-glucosidase) at 1 umol/mL
[9] = Inhibition of beta-Mannosidase; details: Homo sapiens; concentration not given here
[10] = target: T2, Mannosyl-oligosaccharide glucosidase (Homo sapiens); test: Inhibition of Glucosidase 1 (of Endoplasmic reticulum processing alpha-glucosidase) at 2 umol/mL
[11] = target: T3, Cytosolic beta-glucosidase (Homo sapiens); test: Inhibition of beta-Glucosidase at 2 umol/mL
[12] = Competitive Inhibition constant for Bacillus stearothermophilus glucosidase; design: species or system Geobacillus stearothermophilus
Homo sapiens = organism: Homo sapiens; test: Inhibition of Glucosidase 2 at 12 umol/mL
Alpha-glucosidase = target: T5, Alpha-glucosidase (Apis mellifera, UniProt Q17058); test: Inhibition of family 13 alpha-glucosidase isoform I from honey bee at 1 umol/mL
T5 sequence (Q17058 whole entry): T1 sequence (whole entry)

inhibition [1] [%]	pKi [2]	inhibition [3] [%]	inhibition [4] [%]	inhibition [5] [%]	inhibition [6] [%]	inhibition [7] [%]	pIC50 [8]	inhibition [9] [%]	inhibition [10] [%]	inhibition [11] [%]	inhibition ([7]; Beta vulgaris subsp. vulgaris) [%]	pKi [12]	inhibition (Homo sapiens) [%]	pIC50 (Alpha-glucosidase)	Compound
< 1	3.30	12.3	18.2	< 1	< 1	9.8	3.35	< 1	–	–	–	–	–	–	O=C(NCC1OC(CO)C(O)C(O)C1O)c1ccccc1 (centres undefined)
< 1	3.89	–	–	–	100	–	4.26	–	< 1	< 1	3.1	3.24	–	–	O=C(CCCCO)NCC1OC(CO)C(O)C(O)C1O (centres undefined)
< 1	–	–	–	–	< 1	–	–	–	< 1	< 1	8.8	–	–	–	CC(=O)NCC1OC(CO)C(O)C(O)C1O (centres undefined)
< 1	–	–	–	–	< 1	–	–	–	< 1	< 1	3.6	–	–	–	O=C(CCCO)NCC1OC(CO)C(O)C(O)C1O (centres undefined)
3.2	–	–	–	–	< 1	–	–	–	< 1	< 1	1.7	–	< 1	–	O=C(CCO)NCC1OC(CO)C(O)C(O)C1O (centres undefined)
< 1	–	–	–	–	< 1	–	–	–	< 1	< 1	6.9	–	–	3.07	O=C(CO)NCC1OC(CO)C(O)C(O)C1O (centres undefined)
< 1	–	–	–	–	< 1	–	–	–	< 1	< 1	3.2	–	–	–	CC(C)(C)C(=O)NCC1OC(CO)C(O)C(O)C1O (centres undefined)
< 1	–	–	–	–	< 1	–	–	–	< 1	< 1	11.9	–	–	–	O=C(CCCCCO)NCC1OC(CO)C(O)C(O)C1O (centres undefined)
